# Measured values taken from US20240000806A1, “METHODS AND MATERIALS FOR INHIBITING CB1 ACTIVITY” (University of Pittsburgh - Of the Commonwealth System of …, priority 2020, published 2024).
# Biological target: CB1 (CNR1) (Homo sapiens, UniProt P21554)
# Assay: cAMP CNR1 Hunter cell line antagonist assay (CB1 assay)
# Assay type: cell-based
# Details: antagonist mode, cAMP CNR1 Hunter cells, EC80 agonist; read-out: CB1 assay, Efficacy (IC50)
# Protocol: cAMP CNR1 Hunter cell line (Eurofins DiscoveryX) were expanded from freezer stocks and seeded in a total volume of 20 μL into white walled, 384-well microplates and incubated at 37° C. for the appropriate time prior to testing. For antagonist determination, cell media was aspirated from cells and replaced with 10 μL 1:1 HBSS/Hepes:cAMP XS+Ab reagent. 5 μL of 4× compound was added to the cells and incubated at 37° C. for 30 minutes. 5 μL of 4× EC80 agonist was added to cells and incubated at 37° C. for 30 minutes. After appropriate compound incubation, assay signal was generated through incubation with 20 μL cAMP XS+ED/CL lysis cocktail for one hour followed by incubation with 20 μL cAMP XS+EA reagent for three hours at room temperature. Microplates were read following signal generation with a PerkinElmer Envision™ instrument for chemiluminescent signal detection. Compound activity (IC50) was analyzed using CBIS data analysis suite (ChemInnovation, CA).
# Sequence of CB1 (CNR1) (P21554 whole entry): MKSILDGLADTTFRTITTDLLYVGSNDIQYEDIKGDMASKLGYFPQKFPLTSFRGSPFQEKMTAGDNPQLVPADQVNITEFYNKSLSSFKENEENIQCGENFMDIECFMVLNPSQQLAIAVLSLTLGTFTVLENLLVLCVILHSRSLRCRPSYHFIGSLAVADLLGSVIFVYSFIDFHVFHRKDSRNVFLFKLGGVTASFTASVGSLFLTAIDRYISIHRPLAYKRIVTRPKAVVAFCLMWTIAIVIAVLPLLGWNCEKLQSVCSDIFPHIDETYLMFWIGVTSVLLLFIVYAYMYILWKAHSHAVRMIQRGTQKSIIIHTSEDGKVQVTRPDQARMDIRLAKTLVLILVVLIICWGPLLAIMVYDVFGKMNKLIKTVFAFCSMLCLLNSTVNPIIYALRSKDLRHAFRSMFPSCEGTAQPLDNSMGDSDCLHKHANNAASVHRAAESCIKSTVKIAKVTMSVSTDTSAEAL
row,Structure (SMILES),IC50 [µM]
1,CCS(=O)(=O)c1cc2c(c(S(=O)(=O)Nc3ccc(OC(F)(F)F)cc3)c1)OCC(=O)N2 [BC19435],≥ 25
2,CC1Oc2c(cc(Cl)cc2S(=O)(=O)Nc2ccc(Cl)cc2)NC1=O (centres unmarked) [BC19697],≥ 25
3,CCc1ccc(NS(=O)(=O)c2cc(Br)cc3c2OCCNC3=O)cc1 [BC19604],1 to 25
4,COc1ccc(NS(=O)(=O)c2cc3c(cc2Br)NC(=O)CCO3)cc1Cl [BC19694],1 to 25
5,Cc1ccc(NS(=O)(=O)c2cc3c(cc2Br)N(C)C(=O)C(C)O3)cc1Cl (centres unmarked) [BC19797],≥ 25
6,CCS(=O)(=O)c1cc2c(c(S(=O)(=O)Nc3ccc(C)c(Cl)c3)c1)OCC(=O)N2 [BC19544],≥ 25
7,O=C1COc2c(cc(Br)cc2S(=O)(=O)NCc2ccc(OC(F)(F)F)cc2)N1 [BC19385],≥ 25
8,CC1Oc2cc(S(=O)(=O)Nc3ccccc3)c(Br)cc2N(C)C1=O (centres unmarked) [BC19790],1 to 25
9,CCC1Oc2c(cc(Br)cc2S(=O)(=O)Nc2ccc(C)cc2)NC1=O (centres unmarked) [BC19234],≥ 25
10,CCC1Oc2c(cc(Br)cc2S(=O)(=O)Nc2ccc(C)c(Cl)c2)N(C)C1=O (centres unmarked) [BC19937],≥ 25
11,CCc1cccc(NS(=O)(=O)c2cc(Cl)cc3c2OC(CC)C(=O)N3)c1 (centres unmarked) [BC19750],≥ 25
12,CCc1ccc(NS(=O)(=O)c2cc3c(cc2Br)NC(=O)C(C)O3)cc1 (centres unmarked) [BC19216],< 1
13,CCc1ccc(NS(=O)(=O)c2cc(Cl)cc3c2OC(CC)C(=O)N3)cc1 (centres unmarked) [BC19742],1 to 25
14,CCC1Oc2c(cc(Br)cc2S(=O)(=O)Nc2ccc(OC(F)(F)F)cc2)N(C)C1=O (centres unmarked) [BC19921],1 to 25
15,CCC1Oc2cc(S(=O)(=O)Nc3ccc(F)cc3F)c(Cl)cc2NC1=O (centres unmarked) [BC19747],1 to 25
16,COc1ccc(NS(=O)(=O)c2cc3c(cc2Br)NC(=O)CO3)cc1 [BC19137],< 1
17,CC1Oc2c(cc(Br)cc2S(=O)(=O)Nc2ccc(C(C)C)cc2)N(C)C1=O (centres unmarked) [BC19793],≥ 25
18,CCc1cccc(NS(=O)(=O)c2cc3c(cc2Br)NC(=O)CCO3)c1 [BC19657],≥ 25
19,Cc1ccc(NS(=O)(=O)c2cc(S(C)(=O)=O)cc3c2OCC(=O)N3)cc1Cl [BC19486],≥ 25
20,CC(C)CC1Oc2c(cc(Br)cc2S(=O)(=O)Nc2ccc(C(C)C)cc2)NC1=O (centres unmarked) [BC19765],≥ 25
21,CC(C)CC1Oc2c(cc(Br)cc2S(=O)(=O)Nc2ccc(OC(F)(F)F)cc2)NC1=O (centres unmarked) [BC19757],≥ 25
22,CCC1Oc2c(cc(Cl)cc2S(=O)(=O)Nc2ccc(F)cc2Cl)NC1=O (centres unmarked) [BC19756],1 to 25
23,CCC1Oc2cc(S(=O)(=O)NCc3ccc(F)cc3F)c(Br)cc2NC1=O (centres unmarked) [BC19368],≥ 25
24,CCCNS(=O)(=O)c1cc(Br)cc2c1OC(CC)C(=O)N2 (centres unmarked) [BC19229],≥ 25
25,Cc1cc2c(cc1S(=O)(=O)Nc1ccc(Cl)cc1)OCC(=O)N2 [BC19131],< 1
26,CCc1cccc(NS(=O)(=O)c2cc3c(cc2Br)N(C)C(=O)C(C)O3)c1 (centres unmarked) [BC19901],≥ 25

row,Structure (SMILES),IC50 [µM]
1,O=C1COc2c(cc(Br)cc2S(=O)(=O)Nc2ccc(C(F)(F)F)cc2Cl)N1 [BC19384],≥ 25
2,CC(C)c1ccc(NS(=O)(=O)c2cc(Cl)cc3c2OCC(=O)N3)cc1 [BC19174],≥ 25
3,CCC1Oc2c(cc(Br)cc2S(=O)(=O)NC2CCCCC2)NC1=O (centres unmarked) [BC19233],≥ 25
4,CC1Oc2cc(S(=O)(=O)Nc3ccc(OC(F)(F)F)cc3)c(Cl)cc2NC1=O (centres unmarked) [BC19354],≥ 25
5,CCC1Oc2c(cc(Br)cc2S(=O)(=O)Nc2ccc(C)c(F)c2)N(C)C1=O (centres unmarked) [BC19923],≥ 25
6,CCC1Oc2c(cc(Cl)cc2S(=O)(=O)Nc2ccccc2)NC1=O (centres unmarked) [BC19738],< 1
7,CC1C(=O)Nc2ccc(S(=O)(=O)N3CCCC3)cc2N1C(=O)N1CCOCC1 (centres unmarked) [BC19297],≥ 25
8,O=C1CCOc2cc(S(=O)(=O)Nc3ccc(F)cc3F)c(Br)cc2N1 [BC19693],1 to 25
9,CCC1Oc2cc(S(=O)(=O)NC3CCCCC3)c(Br)cc2NC1=O (centres unmarked) [BC19223],1 to 25
10,CCC1Oc2cc(S(=O)(=O)Nc3ccc(OC)cc3)c(Br)cc2N(C)C1=O (centres unmarked) [BC19936],≥ 25
11,CCC1Oc2c(cc(Cl)cc2S(=O)(=O)Nc2ccc(F)c(F)c2)NC1=O (centres unmarked) [BC19736],≥ 25
12,CCS(=O)(=O)c1cc2c(c(S(=O)(=O)Nc3ccc(OC)c(Cl)c3)c1)OCC(=O)N2 [BC19547],≥ 25
13,COc1ccc(NS(=O)(=O)c2cc(Cl)cc3c2OC(C)C(=O)N3)cc1Cl (centres unmarked) [BC19292],1 to 25
14,CCC1Oc2cc(S(=O)(=O)Nc3ccc(C)c(F)c3)c(Cl)cc2NC1=O (centres unmarked) [BC19212],1 to 25
15,Cc1ccc(NS(=O)(=O)c2cc3c(cc2Br)N(C)C(=O)C(C)O3)cc1 (centres unmarked) [BC19912],≥ 25
16,CCC1Oc2c(cc(Br)cc2S(=O)(=O)Nc2ccccc2)N(C)C1=O (centres unmarked) [BC19927],≥ 25
17,CCC1Oc2cc(S(=O)(=O)Nc3ccccc3)c(Cl)cc2NC1=O (centres unmarked) [BC19737],1 to 25
18,CCC1Oc2cc(S(=O)(=O)Nc3cc(Cl)ccc3C)c(Cl)cc2NC1=O (centres unmarked) [BC19215],≥ 25
19,O=C1NCCOc2c1cc(Br)cc2S(=O)(=O)Nc1ccc(F)c(F)c1 [BC19551],≥ 25
20,O=C1COc2c(cc(Br)cc2S(=O)(=O)NC2CCC(O)CC2)N1 (centres unmarked) [BC19381],≥ 25
21,CCC1Oc2cc(S(=O)(=O)Nc3ccc(C(C)C)cc3)c(Br)cc2N(C)C1=O (centres unmarked) [BC19934],≥ 25
22,O=C1COc2c(cc(Cl)cc2S(=O)(=O)Nc2ccc(OC(F)(F)F)cc2)N1 [BC19172],≥ 25
23,O=C1CCOc2c(cc(Br)cc2S(=O)(=O)Nc2ccc(Cl)cc2)N1 [BC19685],≥ 25
24,Cc1ccc(NS(=O)(=O)c2cc(Br)cc3c2OCCNC3=O)cc1Cl [BC19607],1 to 25
25,O=C1NCCOc2c1cc(Br)cc2S(=O)(=O)Nc1ccccc1 [BC19553],≥ 25
26,CC1Oc2c(cc(Br)cc2S(=O)(=O)N2CCOCC2)NC1=O (centres unmarked) [BC19226],≥ 25

row,Structure (SMILES),IC50 [µM]
1,Cc1ccc(NS(=O)(=O)c2cc3c(cc2Cl)NC(=O)C(C)O3)cc1Cl (centres unmarked) [BC19708],≥ 25
2,CCCNS(=O)(=O)c1cc2c(cc1Br)NC(=O)C(CC)O2 (centres unmarked) [BC19222],1 to 25
3,Cc1ccc(NS(=O)(=O)c2cc3c(cc2Cl)NC(=O)CO3)cc1Cl [BC19165],1 to 25
4,CCC1Oc2c(cc(Br)cc2S(=O)(=O)Nc2ccc(C(C)C)cc2)N(C)C1=O (centres unmarked) [BC19933],≥ 25
5,CCC1Oc2cc(S(=O)(=O)Nc3ccc(Cl)cc3)c(Br)cc2NC1=O (centres unmarked) [BC19286],≥ 25
6,CC(C)c1ccc(NS(=O)(=O)c2cc3c(cc2Br)NC(=O)CCO3)cc1 [BC19691],1 to 25
7,CCc1cccc(NS(=O)(=O)c2cc(S(C)(=O)=O)cc3c2OCC(=O)N3)c1 [BC19487],≥ 25
8,CCC1Oc2cc(S(=O)(=O)Nc3cccc(Cl)c3)c(Cl)cc2NC1=O (centres unmarked) [BC19751],< 1
9,CS(=O)(=O)c1cc2c(c(S(=O)(=O)Nc3ccc(OC(F)(F)F)cc3)c1)OCC(=O)N2 [BC19422],≥ 25
10,CC1Oc2cc(S(=O)(=O)N3CCCC3)c(Cl)cc2NC1=O (centres unmarked) [BC19208],≥ 25
11,COc1ccc(NS(=O)(=O)c2cc(Br)cc3c2OCC(=O)N3)cc1Cl [BC19171],1 to 25
12,Cc1ccc(NS(=O)(=O)c2cc3c(cc2Cl)NC(=O)C(C)O3)cc1 (centres unmarked) [BC19717],≥ 25
13,CC1Oc2c(cc(Cl)cc2S(=O)(=O)Nc2cccc(F)c2)NC1=O (centres unmarked) [BC19714],≥ 25
14,CC(C)NC(=O)N1c2cc(S(=O)(=O)N3CCCC3)ccc2NC(=O)C1C (centres unmarked) [BC19298],≥ 25
15,CCC1Oc2c(cc(Cl)cc2S(=O)(=O)Nc2ccc(F)cc2)NC1=O (centres unmarked) [BC19732],1 to 25
16,COc1ccc(NS(=O)(=O)c2cc3c(cc2Cl)NC(=O)C(C)O3)cc1Cl (centres unmarked) [BC19280],1 to 25
17,CC1Nc2cc(S(=O)(=O)N3CCCC3)ccc2NC1=O (centres unmarked) [BC19235],≥ 25
18,CC(C)CC1Oc2c(cc(Br)cc2S(=O)(=O)Nc2cccc(F)c2)NC1=O (centres unmarked) [BC19773],1 to 25
19,CC(C)CC1Oc2cc(S(=O)(=O)Nc3cccc(F)c3)c(Br)cc2NC1=O (centres unmarked) [BC19774],≥ 25
20,COc1ccc(NS(=O)(=O)c2cc3c(cc2Br)N(C)C(=O)C(C)O3)cc1Cl (centres unmarked) [BC19919],≥ 25
21,CCS(=O)(=O)c1cc2c(c(S(=O)(=O)Nc3ccc(F)cc3)c1)OCC(=O)N2 [BC19443],≥ 25
22,CC(C)CC1Oc2cc(S(=O)(=O)Nc3ccc(F)c(F)c3)c(Br)cc2NC1=O (centres unmarked) [BC19760],1 to 25
23,Cc1ccc(NS(=O)(=O)c2cc3c(cc2Br)NC(=O)C(CC(C)C)O3)cc1Cl (centres unmarked) [BC19768],1 to 25
24,CC1Oc2c(cc(Br)cc2S(=O)(=O)Nc2ccc(F)c(F)c2)N(C)C1=O (centres unmarked) [BC19787],≥ 25
25,O=C1COc2c(cc(Br)cc2S(=O)(=O)Nc2ccc(F)cc2F)N1 [BC19178],< 1
